The values below come from US9802897B2, “Amidopyridinol derivative or pharmaceutically acceptable salt thereof and pharmaceutical composition comprising same as active component” (Research Cooperation Foundation of Yeungnam University, priority 2013, dated 2017).

One assay has as its system HUVEC cells. Kind of assay: Scavenging of VEGF-induced ROS in HUVEC cells (DCF-DA fluorescence). The conditions noted are these: pre-treated 3 hours, induced by VEGF 15 minutes, vs VEGF-induced cells. Type of assay: cell-based. The method, then: To measure scavenging effects of ROS in HUVEC cells that were induced by VEGF, 2′,7′-dichlorofluorescein diacetate (DCF-DA) was used. […] After […] at a concentration of 1×10^5, each of which well was coated with 0.2% gelatin, DCF-DA was cultured for 24 hours. Meanwhile, Compounds 8a and 8b were pre-treated for 3 hours, induced by VEGF for 15 minutes, and then, washed with PBS (pH 7.4) three times. Then, 10 μM of DCF-DA was placed in a EBM-2 medium to be treated for 30 minutes in a dark room. Then, DCF-DA was washed again with PBS three times, and then, subjected to measure intensity of fluorescence in the cells by using a fluorescence microscope.

Another assay has as its system cathepsin S. Kind of assay: RT-PCR of cathepsin S gene expression in MDA-MB-231 cells. Format: cell-based. The conditions noted are these: Homo sapiens, MDA-MB-231, 24 h, screening, 1 μM of each compound; MDA-MB-231, RT-PCR; read-out: Inhibition rate of expression of cathepsin S (%). The method, then: Each compound of the present invention was treated with breast cancer cells (1×10^5 cell/cm^2), e.g., MDA-MB-231, and then, cultured at a temperature of 37° C. for 24 hours in a cell incubator. Afterwards, a trizole reagent was used to extract the entire mRNA therefrom. 24 hours later, the culture medium was removed therefrom, 1 mL of the triazole reagent was added to each well, and then, the cell elusion was transferred to a 1.5 mL tube. After 200 μl of chloroform was added to each sample, the samples were subjected to centrifugation at a temperature of 4° C., at 12,000 g, for 15 minutes. 500 μl of the supernatant obtained therefrom was transferred to a new tube. After 500 μl of isopropylalcohol was added to each sample, the samples were subjected to centrifugation at a temperature of 4° C., at 12,000 g, for 15 minutes. The supernatant obtained therefrom was removed from each sample, and then, the samples were washed with 75% ethanol to clean mRNA while the precipitants were dried. Then, mRNA extracted therefrom was dissolved in RNase-free water, followed by being heated at a temperature of 55° C. for 10 minutes.
After the RNA quantification, the GoScript™ reverse transcription system (Promega Corporation, Madison, Wis., USA) was used to synthesize cDNA. Here, PCR was performed by using TaKaRa Taq™ (Takara bio Inc., Shiga, Japan), wherein a primer set of cathepsin S consists of a forward primer having SEQ ID NO: 1 (forward sequence: 5′-GCAGTGGCACAGTTGCATAA-3′) and a reverse primer having SEQ ID NO: 2 (reverse sequence: 5′-AGCACCACAAGAACCCATGT-3′). After the PCR product was subjected to agarose gel electrophoresis, the PCR product was stained with ethidium bromide (0.5 μg/ml), thereby obtaining images thereof by using the gel imaging system (UVP, Cambridge, UK). Here, the PCR product was quantified based on glyceraldehyde 3-phosphate dehydrogenase (GAPDH). A GAPDH primer used herein consists of a forward primer having SEQ ID NO: 3 (forward sequence: 5′-GGTGAAGGTCGGAGTCAACG-3′) and a reverse primer having SEQ ID NO: 4 (reverse sequence: 5′-CAAAGTTGTCATGGATGACC-3′).
Furthermore, to screen other amidopyridinol derivatives that inhibit metastasis of breast cancer cells, inhibitory effects on expression of cathepsin S genes were reviewed by treating 1 μM of each compound, in the same manner as in Experimental Example 9.

Another assay relates to A549 lung cancer cells. Nature of the assay: CAM inoculated with A549 lung cancer cells: angiogenesis and tumor growth. Format: in vivo, chicken. The conditions noted are these: for Inhibition rates of angiogenesis (%) / Inhibition rates of tumor growth (%): A549 on CAM, 5 days; for inhibitory effects on angiogenesis and tumor growth (in words): at each density. The method, then: To confirm inhibitory effects on angiogenesis through in vivo experiments, the CAM analysis was carried out (refer to Nguyen M et al., Microvascular Res., 47, pp 31-40, 1994). A fertilized egg of a chicken was cultured in conditions maintaining a temperature of 37° C. and relative humidity of 55%. On the 9th day of the culturing, a first small hole was made on an air sac part using a hypodermic needle (Green Cross Medical Corp., Korea), and then, a second hole was made on a flat part of the fertilized egg to make a window thereon. Air was removed through the first hole, i.e., the air sac part, and accordingly, the CAM was separated from the shell of the fertilized egg. Then, a grinding wheel (Multipro 395JA, Dremel, Mexico) was used to cut the air sac part, thereby making a window thereon. Meanwhile, A549 lung cancer cells were mixed with matrigel at a ratio of 1:1, and then, the mixture was treated with Compounds 8a, 8b, and 8g, respectively, followed by being inoculated at a density of 1.5×10^6 cells/CAM.
After 5 days of the inoculation, the CAM part on which tumors were formed was isolated, and then, washed with PBS. The Stemi SV6 stereomicroscope (Carl Zeiss, Germany) and the Image-Pro Plus software (Media Cybernetics; Silver Spring, Md., USA) were used to capture images of the CAM part, so as to measure the number of the blood vessels and to analyze data obtained therefrom.

A further assay has as its system HT-29 cells / U937 cells. Kind of assay: TNF-α-induced adhesion of HT-29 intestinal epithelial cells and U937 mononuclear cells. Type of assay: cell-based, human. The following applies: Homo sapiens; 1 μM, pre-treated 1 hour; TNF-α 10 ng/ml; read-out: Inhibitory rates (%). A digest of the protocol: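 HT-29 cells were pretreated with compound for 1 h in serum-free medium, then stimulated with TNF-α 10 ng/ml for 3 h at 37 °C. BCECF-AM-labelled U937 cells were co-incubated for 1 h at 37 °C. Non-adherent cells were washed off, and lysates in 0.1% Triton X-100/0.1 M Tris were read by fluorescence.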

For the compound `CC(=O)Nc1nc(C)c(O)c(C)c1C` [Compound 8a, N-(5-hydroxy-3,4,6-trimethylpyridine-2-yl)acetamide], in the assay on HUVEC cells, the “intensity of fluorescence in the cells (ROS)” value is recorded as “significant decrease in the intensity of fluorescence”. The inhibition at 1 µM in the assay on cathepsin S was at least 50%; with HT-29 cells / U937 cells, 55.4%. Further, the “Inhibition rates of angiogenesis (%)” value with A549 lung cancer cells (0.001 pmol/CAM) is given as 12.7 ± 6.5%; in the assay with A549 lung cancer cells (0.01 pmol/CAM), 23.8 ± 5.2 %; in the assay on A549 lung cancer cells (0.1 pmol/CAM) it was 30.4 ± 3.7 %; in the assay on A549 lung cancer cells (1.0 pmol/CAM) it was 41.2 ± 1.4 %. In addition, the “Inhibition rates of tumor growth (%)” value came out at 20.3 ± 5.9% in the assay on A549 lung cancer cells (0.001 pmol/CAM), 34.2 ± 5.3 % in the assay on A549 lung cancer cells (0.01 pmol/CAM), 37.9 ± 8.0 % in the assay with A549 lung cancer cells (0.1 pmol/CAM) and 47.7 ± 4.1 % with A549 lung cancer cells (1.0 pmol/CAM). Further, the “inhibitory effects on angiogenesis and tumor growth (in words)” value with A549 lung cancer cells is “inhibited angiogenesis upon tumorigenesis, as well as tumor growth”.
Turning to `CCCCCCCCCCCC(=O)Nc1nc(C)c(O)c(C)c1C` [Compound 8b, N-(5-hydroxy-3,4,6-trimethylpyridine-2-yl)dodecanamide], the “intensity of fluorescence in the cells (ROS)” value with HUVEC cells is on record as “significant decrease in the intensity of fluorescence”. Also, the inhibition at 1 µM with cathepsin S is at least 50%; in the assay with HT-29 cells / U937 cells, 55.8%. The “Inhibition rates of angiogenesis (%)” value turned out to be 12.2 ± 4.4% with A549 lung cancer cells (0.001 pmol/CAM), 18.0 ± 3.2 % in the assay on A549 lung cancer cells (0.01 pmol/CAM), 21.3 ± 2.0 % in the assay with A549 lung cancer cells (0.1 pmol/CAM) and 24.7 ± 2.2 % in the assay with A549 lung cancer cells (1.0 pmol/CAM). Further, the “Inhibition rates of tumor growth (%)” value in the assay on A549 lung cancer cells (0.001 pmol/CAM) is 21.7 ± 8.9%; in the assay on A549 lung cancer cells (0.01 pmol/CAM), 26.0 ± 10.0%; with A549 lung cancer cells (0.1 pmol/CAM), 31.3 ± 7.3 %; in the assay with A549 lung cancer cells (1.0 pmol/CAM) it was 38.2 ± 7.2 %. The “inhibitory effects on angiogenesis and tumor growth (in words)” value in the assay with A549 lung cancer cells was “inhibited angiogenesis upon tumorigenesis, as well as tumor growth”.
